Data taken from patent US12331054B2, “Perk inhibiting imidazolopyrazine compounds” (HiberCell, Inc., priority 2019, dated 2025).

Assays:
[1] = test system: eIF2α in HEK293-EGFP-eIF2α cells; assay: PERK Cellular Assay (HEK293-EGFP-eIF2α cells, tunicamycin-induced ER stress, TR-FRET); assay type: cell-based; details: tunicamycin 2 hours
In short: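 After 2 h tunicamycin ([…]) stress following 30 min compound pretreatment at 37 °C, lysed HEK293-EGFP-eIF2α cells were read by TR-FRET. IC50 derived by 4-parameter logistic fitting of percent inhibition, DMSO-normalized, from 10-point 3-fold dilutions.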

[2] = biological target: Recombinant human EIF2AK3 (PERK) catalytic domain (amino acids 536-1116) (Homo sapiens (Human), UniProt Q9NZJ5); assay: PERK In Vitro Activity Assay (isolated), TR-FRET kinase assay; details: isolated PERK enzyme, 1.5 μM ATP, read-out: Biochemical IC50
Chain of Recombinant human EIF2AK3 (PERK) catalytic domain (amino acids 536-1116) (Q9NZJ5 536-1116): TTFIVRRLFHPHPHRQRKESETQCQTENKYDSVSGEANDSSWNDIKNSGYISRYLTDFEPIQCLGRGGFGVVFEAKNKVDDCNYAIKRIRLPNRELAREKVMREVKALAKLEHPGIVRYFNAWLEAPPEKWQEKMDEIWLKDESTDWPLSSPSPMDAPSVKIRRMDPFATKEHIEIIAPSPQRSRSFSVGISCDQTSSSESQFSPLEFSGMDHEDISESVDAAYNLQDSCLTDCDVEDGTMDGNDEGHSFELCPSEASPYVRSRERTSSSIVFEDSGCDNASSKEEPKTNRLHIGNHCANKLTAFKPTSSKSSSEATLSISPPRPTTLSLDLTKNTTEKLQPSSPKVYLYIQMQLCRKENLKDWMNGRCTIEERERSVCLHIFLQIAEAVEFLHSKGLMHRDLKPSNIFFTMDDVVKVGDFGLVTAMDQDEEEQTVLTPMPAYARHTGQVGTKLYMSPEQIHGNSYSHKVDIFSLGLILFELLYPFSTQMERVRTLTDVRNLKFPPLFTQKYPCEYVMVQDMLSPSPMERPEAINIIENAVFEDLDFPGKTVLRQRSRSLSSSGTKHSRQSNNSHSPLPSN
In short: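 IC50 values come from 4-parameter logistic fits of TR-FRET ratios, read after 90 min with 2 nM terbium-labelled phospho-eIF2a antibody following an EDTA stop (10 mM final). The kinase reaction ran 45 min at room temperature, started by adding PERK catalytic domain to 100–200 nM GFP-eIF2a in HEPES pH 7.5 buffer with MgCl2, EGTA and Brij-35.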

Row | Structure (SMILES) | IC50 [2] [nM] | IC50 [1] [nM]
1 | Cc1cnc(N)c2c(-c3ccc(NC(=O)C(O)c4cccc(F)c4)c(F)c3)nc(C)n12 (centres unmarked) [Example 124, N-(4-(8-amino-3,5-dimethyl-imidazo[1,5-a]pyrazin-1-yl)-2-fluorophenyl)-2-(3-fluorophenyl)-2-hydroxy-acetamide] | 26 to 50 | 501 to 1000
2 | Cc1cnc(N)c2c(-c3ccc(NC(=O)C(O)c4cccc(F)c4)cc3OC(F)(F)F)nc(C)n12 (centres unmarked) [Example 126, N-(4-(8-amino-3,5-dimethyl-imidazo[1,5-a]pyrazin-1-yl)-3-(trifluoromethoxy)phenyl)-2-(3-fluorophenyl)-2-hydroxyacetamide] | 101 to 250 | 501 to 1000
3 | Cc1cn2c(C)nc(-c3ccc(NC(=O)C(O)c4cccc(F)c4)c(F)c3F)c2c(N)n1 (centres unmarked) [Example 129, N-(4-(8-amino-3,6-dimethyl-imidazo[1,5-a]pyrazin-1-yl)-2,3-difluoro-phenyl)-2-(3-fluorophenyl)-2-hydroxyacetamide] | 501 to 1000 | > 5000
4 | [2H]C([2H])([2H])c1nc(-c2ccc(NC(=O)C(O)c3cccc(F)c3)c(F)c2F)c2c(N)nc(C)cn12 (centres unmarked) [Example 131, N-[4-[8-amino-6-methyl-3-(trideuteriomethyl)imidazo[1,5-a]pyrazin-1-yl]-2,3-difluoro-phenyl]-2-(3-fluoro-phenyl)-2-hydroxy-acetamide] | 501 to 1000 | 3000 to 4000
5 | [2H]C([2H])([2H])c1nc(-c2ccc(NC(=O)C(O)c3cccc(F)c3)c(F)c2F)c2c(N)ncc(C(F)(F)F)n12 (centres unmarked) [Example 135, N-[4-[8-amino-3-(trideuteriomethyl)-5-(trifluoromethyl)imidazo[1,5-a]pyrazin-1-yl]-2,3-difluoro-phenyl]-2-(3-fluorophenyl)-2-hydroxy-acetamide] | 101 to 250 | 501 to 1000
6 | [2H]C([2H])([2H])c1nc(-c2ccc(NC(=O)C(O)c3cccc(Cl)c3)c(F)c2F)c2c(N)nc(C)cn12 (centres unmarked) [Example 141, N-[4-[8-amino-6-methyl-3-(trideuteriomethyl)imidazo[1,5-a]pyrazin-1-yl]-2,3-difluoro-phenyl]-2-(3-chlorophenyl)-2-hydroxy-acetamide] | 51 to 100 | 501 to 1000
7 | [2H]C([2H])([2H])c1nc(-c2ccc(NC(=O)C(O)c3cccc(Cl)c3)c(F)c2F)c2c(N)ncc(C(F)(F)F)n12 (centres unmarked) [Example 142, N-[4-[8-amino-3-(trideuteriomethyl)-5-(trifluoromethyl)imidazo[1,5-a]pyrazin-1-yl]-2,3-difluoro-phenyl]-2-(3-chlorophenyl)-2-hydroxy-acetamide] | 1 to 25 | 1 to 25
8 | [2H]C([2H])([2H])c1nc(-c2ccc(NC(=O)C(O)c3cccc(Cl)c3)c(F)c2F)c2c(N)ncc(C(F)(F)F)n12 (centres unmarked) [Example 143, N-[4-[8-amino-3-(trideuteriomethyl)-5-(trifluoromethyl)imidazo[1,5-a]pyrazin-1-yl]-2,3-difluoro-phenyl]-2-(3-chlorophenyl)-2-hydroxy-acetamide] | 251 to 500 | 251 to 500
9 | [2H]C([2H])([2H])c1nc(-c2ccc(NC(=O)C(O)c3cccc(Cl)c3)c(F)c2F)c2c(N)ncc(Cl)n12 (centres unmarked) [Example 144, N-[4-[8-amino-5-chloro-3-(trideuteriomethyl)imidazo[1,5-a]pyrazin-1-yl]-2,3-difluoro-phenyl]-2-(3-chlorophenyl)-2-hydroxy-acetamide] | 1 to 25 | 51 to 100
10 | [2H]C([2H])([2H])c1nc(-c2ccc(NC(=O)C(O)c3cccc(Cl)c3)c(F)c2F)c2c(N)ncc(Cl)n12 (centres unmarked) [Example 145, N-[4-[8-amino-5-chloro-3-(trideuteriomethyl)imidazo[1,5-a]pyrazin-1-yl]-2,3-difluoro-phenyl]-2-(3-chlorophenyl)-2-hydroxy-acetamide] | 1 to 25 | 1 to 25
11 | [2H]C([2H])([2H])c1nc(-c2ccc(NC(=O)C(O)c3cccc(C(F)(F)F)c3)c(F)c2F)c2c(N)ncc(C)n12 (centres unmarked) [Example 146, N-[4-[8-amino-5-methyl-3-(trideuteriomethyl)imidazo[1,5-a]pyrazin-1-yl]-2,3-difluoro-phenyl]-2-hydroxy-2-[3-(trifluoromethyl)phenyl]acetamide] | 1 to 25 | 1 to 25
12 | [2H]C([2H])([2H])c1nc(-c2ccc(NC(=O)C(O)c3cccc(C(F)(F)F)c3)c(F)c2F)c2c(N)ncc(C)n12 (centres unmarked) [Example 147, N-[4-[8-amino-5-methyl-3-(trideuteriomethyl)imidazo[1,5-a]pyrazin-1-yl]-2,3-difluoro-phenyl]-2-hydroxy-2-[3-(trifluoromethyl)phenyl]acetamide] | 26 to 50 | 101 to 250

Second part, led by results:

Row | IC50 [2] [nM] | Structure (SMILES) | IC50 [1] [nM]
13 | 1 to 25 | [2H]C([2H])([2H])c1nc(-c2ccc(NC(=O)C(O)c3cccc(F)c3)c(F)c2)c2c(N)ncc(C)n12 (centres unmarked) [Example 123, N-[4-[8-amino-5-methyl-3-(trideuteriomethyl)imidazo[1,5-a]pyrazin-1-yl]-2-fluoro-phenyl]-2-(3-fluorophenyl)-2-hydroxy-acetamide] | 1 to 25
14 | 1 to 25 | Cc1cnc(N)c2c(-c3ccc(NC(=O)C(O)c4cccc(F)c4)c(F)c3)nc(C)n12 (centres unmarked) [Example 125, N-(4-(8-amino-3,5-dimethyl-imidazo[1,5-a]pyrazin-1-yl)-2-fluorophenyl)-2-(3-fluorophenyl)-2-hydroxy-acetamide] | 1 to 25
15 | 1 to 25 | Cc1cnc(N)c2c(-c3ccc(NC(=O)C(O)c4cccc(F)c4)cc3OC(F)(F)F)nc(C)n12 (centres unmarked) [Example 127, N-(4-(8-amino-3,5-dimethyl-imidazo[1,5-a]pyrazin-1-yl)-3-(trifluoromethoxy)phenyl)-2-(3-fluorophenyl)-2-hydroxyacetamide] | 101 to 250
16 | 1 to 25 | Cc1cn2c(C)nc(-c3ccc(NC(=O)C(O)c4cccc(F)c4)c(F)c3F)c2c(N)n1 (centres unmarked) [Example 128, N-(4-(8-amino-3,6-dimethyl-imidazo[1,5-a]pyrazin-1-yl)-2,3-difluoro-phenyl)-2-(3-fluorophenyl)-2-hydroxyacetamide] | 1 to 25
17 | 1 to 25 | [2H]C([2H])([2H])c1nc(-c2ccc(NC(=O)C(O)c3cccc(F)c3)c(F)c2F)c2c(N)nc(C)cn12 (centres unmarked) [Example 130, N-[4-[8-amino-6-methyl-3-(trideuteriomethyl)imidazo[1,5-a]pyrazin-1-yl]-2,3-difluoro-phenyl]-2-(3-fluoro-phenyl)-2-hydroxy-acetamide] | 1 to 25
18 | 1 to 25 | [2H]C([2H])([2H])c1nc(-c2ccc(NC(=O)C(O)c3cccc(F)c3)c(F)c2F)c2c(N)ncc(C)n12 (centres unmarked) [Example 132, N-[4-[8-amino-5-methyl-3-(trideuteriomethyl)imidazo[1,5-a]pyrazin-1-yl]-2,3-difluoro-phenyl]-2-(3-fluoro-phenyl)-2-hydroxy-acetamide] | 1 to 25
19 | 1 to 25 | [2H]C([2H])([2H])c1nc(-c2ccc(NC(=O)C(O)c3cccc(F)c3)c(F)c2F)c2c(N)ncc(C)n12 (centres unmarked) [Example 133, N-[4-[8-amino-5-methyl-3-(trideuteriomethyl)imidazo[1,5-a]pyrazin-1-yl]-2,3-difluoro-phenyl]-2-(3-fluoro-phenyl)-2-hydroxy-acetamide] | 101 to 250
20 | 1 to 25 | [2H]C([2H])([2H])c1nc(-c2ccc(NC(=O)C(O)c3cccc(F)c3)c(F)c2F)c2c(N)ncc(C(F)(F)F)n12 (centres unmarked) [Example 134, N-[4-[8-amino-3-(trideuteriomethyl)-5-(trifluoromethyl)imidazo[1,5-a]pyrazin-1-yl]-2,3-difluoro-phenyl]-2-(3-fluorophenyl)-2-hydroxy-acetamide] | 1 to 25
21 | 1 to 25 | [2H]C([2H])([2H])c1nc(-c2ccc(NC(=O)C(O)c3cccc(F)c3)c(F)c2F)c2c(N)ncc(Cl)n12 (centres unmarked) [Example 136, N-[4-[8-amino-5-chloro-3-(trideuteriomethyl)imidazo[1,5-a]pyrazin-1-yl]-2,3-difluoro-phenyl]-2-(3-fluoro-phenyl)-2-hydroxy-acetamide] | 1 to 25
22 | 1 to 25 | [2H]C([2H])([2H])c1nc(-c2ccc(NC(=O)C(O)c3cccc(F)c3)c(F)c2F)c2c(N)ncc(Cl)n12 (centres unmarked) [Example 137, N-[4-[8-amino-5-chloro-3-(trideuteriomethyl)imidazo[1,5-a]pyrazin-1-yl]-2,3-difluoro-phenyl]-2-(3-fluoro-phenyl)-2-hydroxy-acetamide] | 251 to 500
23 | 1 to 25 | [2H]C([2H])([2H])c1nc(-c2ccc(NC(=O)C(O)c3cccc(Cl)c3)c(F)c2F)c2c(N)ncc(C)n12 (centres unmarked) [Example 138, N-[4-[8-amino-5-methyl-3-(trideuteriomethyl)imidazo[1,5-a]pyrazin-1-yl]-2,3-difluoro-phenyl]-2-(3-chloro-phenyl)-2-hydroxy-acetamide] | 1 to 25
24 | 1 to 25 | [2H]C([2H])([2H])c1nc(-c2ccc(NC(=O)C(O)c3cccc(Cl)c3)c(F)c2F)c2c(N)ncc(C)n12 (centres unmarked) [Example 139, N-[4-[8-amino-5-methyl-3-(trideuteriomethyl)imidazo[1,5-a]pyrazin-1-yl]-2,3-difluoro-phenyl]-2-(3-chlorophenyl)-2-hydroxy-acetamide] | 101 to 250
25 | 1 to 25 | [2H]C([2H])([2H])c1nc(-c2ccc(NC(=O)C(O)c3cccc(Cl)c3)c(F)c2F)c2c(N)nc(C)cn12 (centres unmarked) [Example 140, N-[4-[8-amino-6-methyl-3-(trideuteriomethyl)imidazo[1,5-a]pyrazin-1-yl]-2,3-difluoro-phenyl]-2-(3-chlorophenyl)-2-hydroxy-acetamide] | 1 to 25
